Data taken from patent US9682118B1, “Inhibition of metastasis by cell penetrating peptides” (University of Mississippi Medical Center, priority 2006, dated 2017).

System: SKOV-3 cells
Test: Boyden chamber migration assay
Assay type: cell-based
Conditions: SKOV-3, 8 μm pores, 24 h
Description: FIG. 14 is data related to a Boyden chamber assay. […] Cells were washed, fixed, stained with hematoxylin and 4 random fields were counted at 20× magnification. FIG. 14B is a set of images after cells were later incubated with Hoechst dye for 10 min. and images were obtained at 10× magnification.
In order to confirm the role of CPP-ELPs in preventing migration of SKOV-3 cells, a boyden chamber assay was performed (35). This assay involves a membrane with pore size of 8 μm. SKOV-3 cells are plated on one side of the membrane, and a chemoattractant (FBS) is placed on the opposite side of the membrane. The cells are allowed to migrate trough the pores toward the chemoattractant for […], and the cells which penetrated the membrane are quantified by cell counting and independently by Hoechst staining and fluorescence microscopy. […] Serum starvation of cells overnight ruled out the fact that proliferation was a contributing factor in this assay.

Tat (YGRKKRRQRRR; Tat CPP) [Tat peptide]
migration across the membrane toward FBS: migrated across the membrane
